Data on 8 compounds can be found in ChEMBL document CHEMBL6078640, “Trivalent oleanolic acid-glucose conjugates: Synthesis and efficacy against Influenza A virus” (Eur J Med Chem, 2024).

Activity calls are given as the source filed them. The calls are words filed in the database; no cut-off is given here.

The nature of data set [1]: Selectivity index, ratio of CC50 for dog MDCK cells to IC50 for influenza A virus A/WSN/33(H1N1) infected in MDCK cells. Format: toxicity, cell-based. The settings on record: read-out: Selectivity Index.
The test system of data set [2] is Influenza A virus. The experiment in a line: Antiviral activity against Influenza A virus H1N1 infected in MDCK cells assessed as inhibition of viral growth at 100 uM relative to control. It is filed as functional.
Data set [3] in a line: Cytotoxicity against dog MDCK cells assessed as reduction in cell viability incubated for 40 hrs by celltiter-glo assay. Format: toxicity, cell-based, Canis lupus familiaris. For orientation: In ATP-based viability assays light output follows the ATP content of the culture.
Data set [4] has as its system Influenza A virus. In words: Antiviral activity against influenza A virus A/WSN/33(H1N1) infected in MDCK cells assessed as inhibition of viral-induced cytopathic effect pretreated with cells followed by viral infection and measured after 40 hrs by fluorescence based microplate reader analysis. Format: functional, organism-based.
Data set [5] has as its system Influenza A virus. In words: Antiviral activity against Influenza A virus A/WSN/33(H1N1) infected in female BALB/c kunming mouse assessed as reduction in immune cell infiltration at 10 mg/kg/day, administered intranasally once per day for 7 days starting from 24 hrs post-viral infection and measured daily. Format: functional, organism-based. The settings on record: time 7.0 day.

Data set [6] relates to Influenza A virus. In words: Antiviral activity against Influenza A virus A/WSN/33(H1N1) infected in female BALB/c kunming mouse assessed as reduction in severe pneumonia at 10 mg/kg/day, administered intranasally once per day for 7 days starting from 24 hrs post-viral infection and measured daily. Format: functional, organism-based. The settings on record: time 7.0 day.
In data set [7] the test system is Influenza A virus. The experiment in a line: Antiviral activity against Influenza A virus A/WSN/33(H1N1) infected in female BALB/c kunming mouse assessed as reduction in lung index at 12.5 mg/kg/day, administered intranasally once per day for 7 days starting from 24 hrs post-viral infection and measured daily. It is filed as functional. As to conditions: time 7 day.

In another data set the test system is MDCK. The experiment in a line: Cytotoxicity against dog MDCK cells assessed as reduction in cell viability at 100 uM incubated for 40 hrs by celltiter-glo assay. Format: toxicity, cell-based, Canis lupus familiaris.

In the case of `CC1(C)CC[C@]2(C(=O)NCc3cn([C@@H]4O[C@H](CO)[C@@H](O)[C@H](O)[C@H]4O)nn3)CC[C@]3(C)C(=CC[C@@H]4[C@@]5(C)CC[C@H](O)C(C)(C)[C@@H]5CC[C@]43C)[C@@H]2C1`, the selectivity ratio in data set [1] is more than 73.5. Moreover, the inhibition (usually the percentage by which the read-out fell short of the control) at 100 µM with Influenza A virus [2] is more than 75%. In data set [3], the 50% cytotoxic concentration (CC50) (commonly the concentration giving 50% cytotoxicity) at 40 h is more than 100 µM. In addition, the IC50 (usually the concentration at which inhibition is half-maximal) in the data set with Influenza A virus [4] came to 1.36 µM. The result with Influenza A virus [5] and in the data set with Influenza A virus [6] was Active. Further, the Activity_index with Influenza A virus [7] was determined as 1.4. Besides, the Activity entry in the data set with MDCK was “Non-toxic”.

Take `CC(=O)OC[C@H]1O[C@@H](n2cc(CNC(=O)[C@]34CCC(C)(C)C[C@H]3C3=CC[C@@H]5[C@@]6(C)CC[C@H](OC(=O)NCCc7cn(CC(CO)(Cn8cc(CCNC(=O)O[C@H]9CC[C@]%10(C)[C@H]%11CC=C%12[C@@H]%13CC(C)(C)CC[C@]%13(C(=O)NCc%13cn([C@@H]%14O[C@H](COC(C)=O)[C@@H](OC(C)=O)[C@H](OC(C)=O)[C@H]%14OC(C)=O)nn%13)CC[C@@]%12(C)[C@]%11(C)CC[C@H]%10C9(C)C)nn8)Cn8cc(CCNC(=O)O[C@H]9CC[C@]%10(C)[C@H]%11CC=C%12[C@@H]%13CC(C)(C)CC[C@]%13(C(=O)NCc%13cn([C@@H]%14O[C@H](COC(C)=O)[C@@H](OC(C)=O)[C@H](OC(C)=O)[C@H]%14OC(C)=O)nn%13)CC[C@@]%12(C)[C@]%11(C)CC[C@H]%10C9(C)C)nn8)nn7)C(C)(C)[C@@H]6CC[C@@]5(C)[C@]3(C)CC4)nn2)[C@H](OC(C)=O)[C@@H](OC(C)=O)[C@@H]1OC(C)=O`: the selectivity ratio in data set [1] is more than 9.69. Besides, in the data set on Influenza A virus [2], the inhibition at 100 µM is more than 75%. Besides, the cytotoxic concentration (CC50) at 40 h in data set [3] is more than 100 µM. Further, in the data set with Influenza A virus [4], the IC50 stood at 10.3 µM. Moreover, the Activity entry in the data set on MDCK is reported as “Non-toxic”.

As to `CC1(C)CC[C@]2(C(=O)NCc3cn([C@@H]4O[C@H](CO)[C@@H](O)[C@H](O)[C@H]4O)nn3)CC[C@]3(C)C(=CC[C@@H]4[C@@]5(C)CC[C@H](OC(=O)NCCCCCc6cn(Cc7cc(Cn8cc(CCCCCNC(=O)O[C@H]9CC[C@]%10(C)[C@H]%11CC=C%12[C@@H]%13CC(C)(C)CC[C@]%13(C(=O)NCc%13cn([C@@H]%14O[C@H](CO)[C@@H](O)[C@H](O)[C@H]%14O)nn%13)CC[C@@]%12(C)[C@]%11(C)CC[C@H]%10C9(C)C)nn8)cc(Cn8cc(CCCCCNC(=O)O[C@H]9CC[C@]%10(C)[C@H]%11CC=C%12[C@@H]%13CC(C)(C)CC[C@]%13(C(=O)NCc%13cn([C@@H]%14O[C@H](CO)[C@@H](O)[C@H](O)[C@H]%14O)nn%13)CC[C@@]%12(C)[C@]%11(C)CC[C@H]%10C9(C)C)nn8)c7)nn6)C(C)(C)[C@@H]5CC[C@]43C)[C@@H]2C1`, the selectivity ratio in data set [1] was more than 1.37. Further, the inhibition at 100 µM in the data set on Influenza A virus [2] is more than 75%. In addition, the half-maximal cytotoxic concentration (CC50) at 40 h in data set [3] is more than 100 µM. The IC50 in the data set on Influenza A virus [4] came to 72.9 µM. Besides, the Activity result with MDCK is reported as “Non-toxic”.

Consider `CC(=O)OC[C@H]1O[C@@H](n2cc(CNC(=O)[C@]34CCC(C)(C)C[C@H]3C3=CC[C@@H]5[C@@]6(C)CC[C@H](OC(=O)NCCCCCc7cn(CC(CO)(Cn8cc(CCCCCNC(=O)O[C@H]9CC[C@]%10(C)[C@H]%11CC=C%12[C@@H]%13CC(C)(C)CC[C@]%13(C(=O)NCc%13cn([C@@H]%14O[C@H](COC(C)=O)[C@@H](OC(C)=O)[C@H](OC(C)=O)[C@H]%14OC(C)=O)nn%13)CC[C@@]%12(C)[C@]%11(C)CC[C@H]%10C9(C)C)nn8)Cn8cc(CCCCCNC(=O)O[C@H]9CC[C@]%10(C)[C@H]%11CC=C%12[C@@H]%13CC(C)(C)CC[C@]%13(C(=O)NCc%13cn([C@@H]%14O[C@H](COC(C)=O)[C@@H](OC(C)=O)[C@H](OC(C)=O)[C@H]%14OC(C)=O)nn%13)CC[C@@]%12(C)[C@]%11(C)CC[C@H]%10C9(C)C)nn8)nn7)C(C)(C)[C@@H]6CC[C@@]5(C)[C@]3(C)CC4)nn2)[C@H](OC(C)=O)[C@@H](OC(C)=O)[C@@H]1OC(C)=O`, for which, in data set [1], the selectivity ratio was more than 4.02. The inhibition at 100 µM with Influenza A virus [2] is more than 75%. In data set [3], the CC50 at 40 h was more than 100 µM. Moreover, the half-maximal inhibitory concentration (IC50) with Influenza A virus [4] was found to be 24.9 µM. In addition, the Activity entry in the data set on MDCK was “Non-toxic”.

Consider `CC(=O)OC[C@H]1O[C@@H](n2cc(CNC(=O)[C@]34CCC(C)(C)C[C@H]3C3=CC[C@@H]5[C@@]6(C)CC[C@H](OC(=O)NCCCc7cn(Cc8cc(Cn9cc(CCCNC(=O)O[C@H]%10CC[C@]%11(C)[C@H]%12CC=C%13[C@@H]%14CC(C)(C)CC[C@]%14(C(=O)NCc%14cn([C@@H]%15O[C@H](COC(C)=O)[C@@H](OC(C)=O)[C@H](OC(C)=O)[C@H]%15OC(C)=O)nn%14)CC[C@@]%13(C)[C@]%12(C)CC[C@H]%11C%10(C)C)nn9)cc(Cn9cc(CCCNC(=O)O[C@H]%10CC[C@]%11(C)[C@H]%12CC=C%13[C@@H]%14CC(C)(C)CC[C@]%14(C(=O)NCc%14cn([C@@H]%15O[C@H](COC(C)=O)[C@@H](OC(C)=O)[C@H](OC(C)=O)[C@H]%15OC(C)=O)nn%14)CC[C@@]%13(C)[C@]%12(C)CC[C@H]%11C%10(C)C)nn9)c8)nn7)C(C)(C)[C@@H]6CC[C@@]5(C)[C@]3(C)CC4)nn2)[C@H](OC(C)=O)[C@@H](OC(C)=O)[C@@H]1OC(C)=O`, for which, in data set [1], the selectivity ratio was more than 15.6. In addition, the inhibition at 100 µM with Influenza A virus [2] was more than 75%. Besides, in data set [3], the cytotoxic concentration (CC50) at 40 h is more than 100 µM. Also, the concentration for half-maximal inhibition (IC50) in the data set on Influenza A virus [4] was found to be 6.39 µM. Further, in the data set with MDCK, the Activity result is “Non-toxic”.

Turning to `CC1(C)CC[C@]2(C(=O)NCc3cn([C@@H]4O[C@H](CO)[C@@H](O)[C@H](O)[C@H]4O)nn3)CC[C@]3(C)C(=CC[C@@H]4[C@@]5(C)CC[C@H](OC(=O)NCCc6cn(Cc7cc(Cn8cc(CCNC(=O)O[C@H]9CC[C@]%10(C)[C@H]%11CC=C%12[C@@H]%13CC(C)(C)CC[C@]%13(C(=O)NCc%13cn([C@@H]%14O[C@H](CO)[C@@H](O)[C@H](O)[C@H]%14O)nn%13)CC[C@@]%12(C)[C@]%11(C)CC[C@H]%10C9(C)C)nn8)cc(Cn8cc(CCNC(=O)O[C@H]9CC[C@]%10(C)[C@H]%11CC=C%12[C@@H]%13CC(C)(C)CC[C@]%13(C(=O)NCc%13cn([C@@H]%14O[C@H](CO)[C@@H](O)[C@H](O)[C@H]%14O)nn%13)CC[C@@]%12(C)[C@]%11(C)CC[C@H]%10C9(C)C)nn8)c7)nn6)C(C)(C)[C@@H]5CC[C@]43C)[C@@H]2C1`, the selectivity ratio in data set [1] is more than 4.97. The inhibition at 100 µM with Influenza A virus [2] was more than 75%. In addition, in data set [3], the CC50 at 40 h is more than 100 µM. Also, the concentration for half-maximal inhibition (IC50) in the data set with Influenza A virus [4] stood at 20.1 µM. Also, the Activity entry in the data set on MDCK was “Non-toxic”.

Take `CC(=O)OC[C@H]1O[C@@H](n2cc(CNC(=O)[C@]34CCC(C)(C)C[C@H]3C3=CC[C@@H]5[C@@]6(C)CC[C@H](OC(=O)NCCCCCc7cn(Cc8cc(Cn9cc(CCCCCNC(=O)O[C@H]%10CC[C@]%11(C)[C@H]%12CC=C%13[C@@H]%14CC(C)(C)CC[C@]%14(C(=O)NCc%14cn([C@@H]%15O[C@H](COC(C)=O)[C@@H](OC(C)=O)[C@H](OC(C)=O)[C@H]%15OC(C)=O)nn%14)CC[C@@]%13(C)[C@]%12(C)CC[C@H]%11C%10(C)C)nn9)cc(Cn9cc(CCCCCNC(=O)O[C@H]%10CC[C@]%11(C)[C@H]%12CC=C%13[C@@H]%14CC(C)(C)CC[C@]%14(C(=O)NCc%14cn([C@@H]%15O[C@H](COC(C)=O)[C@@H](OC(C)=O)[C@H](OC(C)=O)[C@H]%15OC(C)=O)nn%14)CC[C@@]%13(C)[C@]%12(C)CC[C@H]%11C%10(C)C)nn9)c8)nn7)C(C)(C)[C@@H]6CC[C@@]5(C)[C@]3(C)CC4)nn2)[C@H](OC(C)=O)[C@@H](OC(C)=O)[C@@H]1OC(C)=O`: the selectivity ratio in data set [1] is more than 1.89. For the same compound, the inhibition at 100 µM in the data set on Influenza A virus [2] is more than 75%. Moreover, in data set [3], the 50% cytotoxic concentration (CC50) at 40 h is more than 100 µM. The half-inhibitory concentration (IC50) in the data set on Influenza A virus [4] worked out at 52.9 µM. For the same compound, the Activity entry in the data set with MDCK is reported as “Non-toxic”.

Take `CC1(C)CC[C@]2(C(=O)NCc3cn([C@@H]4O[C@H](CO)[C@@H](O)[C@H](O)[C@H]4O)nn3)CC[C@]3(C)C(=CC[C@@H]4[C@@]5(C)CC[C@H](OC(=O)NCCCCCc6cn(CC(CO)(Cn7cc(CCCCCNC(=O)O[C@H]8CC[C@]9(C)[C@H]%10CC=C%11[C@@H]%12CC(C)(C)CC[C@]%12(C(=O)NCc%12cn([C@@H]%13O[C@H](CO)[C@@H](O)[C@H](O)[C@H]%13O)nn%12)CC[C@@]%11(C)[C@]%10(C)CC[C@H]9C8(C)C)nn7)Cn7cc(CCCCCNC(=O)O[C@H]8CC[C@]9(C)[C@H]%10CC=C%11[C@@H]%12CC(C)(C)CC[C@]%12(C(=O)NCc%12cn([C@@H]%13O[C@H](CO)[C@@H](O)[C@H](O)[C@H]%13O)nn%12)CC[C@@]%11(C)[C@]%10(C)CC[C@H]9C8(C)C)nn7)nn6)C(C)(C)[C@@H]5CC[C@]43C)[C@@H]2C1`: the selectivity ratio in data set [1] is more than 16.7. Further, the inhibition at 100 µM in the data set on Influenza A virus [2] is more than 75%. The 50% cytotoxic concentration (CC50) at 40 h in data set [3] is more than 100 µM. For the same compound, in the data set with Influenza A virus [4], the half-inhibitory concentration (IC50) came to 5.99 µM. Moreover, the Activity result in the data set with MDCK was “Non-toxic”.
